Key:
Type in all cases: in vivo
Phytophthora [1] = assay: D-3b) systemic action against Phytophthora on potato plants; conditions: Phytophthora, 96 h; 200 ppm; test D-3b) systemic (soil watering); potato plants (Bintje); evaluated after 4 days; read-out: inhibit fungal infestations
Protocol: (§1) D-3: Action Against Phytophthora on Potato Plants
2-3 week old potato plants (Bintje variety) are watered with a spray mixture (0.02% active ingredient based on the volume of the soil) prepared from a wettable powder formulation of the test compound. […] After 48 hours, the treated plants are infected with a sporangia suspension of the fungus. Fungus infestation is evaluated after incubation of the infected plants for 4 days at 90-100% relative humidity and +20° C. Fungal infestation is effectively controlled with compounds of Tables 1 to 35. Compounds E1.003, E1.004, E1.009, E1.011, E1.012, E1.019, E1.020, E1.021, E1.022, E1.025, E1.031, E1.032, E1.033, E1.038, E1.045, E1.049, E1.050, E1.053, E1.085, E1.089, E1.090, E1.091, E1.102, E1.110, E1.112, E1.121, E1.125, E1.129 at 200 ppm inhibit fungal infestations in both tests D-3a) and D-3b) by 80-100%.

Plasmopara viticola [2] = assay: D-1a) residual-protective action against Plasmopara viticola on vines; conditions: Plasmopara viticola, 144 h; 200 ppm; test D-1a) residual-protective; vine seedlings; evaluated after 6 days; read-out: inhibit fungal infestations
Protocol: (§2) D-1: Action Against Plasmopara viticola on Vines
(§3) a) Residual-protective Action
Vine seedlings are sprayed at the 4- to 5-leaf stage with a spray mixture (0.02% active ingredient) prepared from a wettable powder formulation of the test compound. After 24 hours, the treated plants are infected with a sporangia suspension of the fungus. Fungus infestation is evaluated after incubation for 6 days at 95-100% relative humidity and +20° C.

Phytophthora [3] = assay: D-2a) residual-protective action against Phytophthora on tomato plants; conditions: Phytophthora, 120 h; 200 ppm; test D-2a) residual-protective, evaluated after 5 days, read-out: inhibit fungal infestations
Protocol: (§4) D-2: Action Against Phytophthora on Tomato Plants
as §3
After a cultivation period of 3 weeks, tomato plants are sprayed with a spray mixture (0.02% active ingredient) prepared from a wettable powder formulation of the test compound. After 48 hours, the treated plants are infected with a sporangia suspension of the fungus. Fungus infestation is evaluated after incubation of the infected plants for 5 days at 90-100% relative humidity and +20° C.

Phytophthora [4] = assay: D-2b) systemic action against Phytophthora on tomato plants; conditions: Phytophthora, 96 h; 200 ppm; test D-2b) systemic (soil watering), evaluated after 4 days, read-out: inhibit fungal infestations
Protocol: as §4
After a cultivation period of 3 weeks, tomato plants are watered with a spray mixture (0.02% active ingredient based on the volume of the soil) prepared from a wettable powder formulation of the test compound. […] After 96 hours, the treated plants are infected with a sporangia suspension of the fungus. Fungus infestation is evaluated after incubation of the infected plants for 4 days at 90-100% relative humidity and +20° C. […] Compounds E1.003, E1.004, E1.009, E1.011, E1.012, E1.014, E1.018, E1.019, E1.020, E1.021, E1.022, E1.023, E1.025, E1.031, E1.032, E1.033, E1.038, E1.040, E1.044, E1.045, E1.049, E1.050, E1.053, E1.055, E1.057, E1.064, E1.085, E1.089, E1.090, E1.091, E1.102, E1.08, E1.110, E1.112, E1.121, E1.125, E1.129, E1.139 and E1.141 at 200 ppm inhibit fungal infestations in both tests D-2a) and D-2b) by 80-100%.

Phytophthora [5] = assay: D-3a) residual-protective action against Phytophthora on potato plants; conditions: Phytophthora, 96 h; 200 ppm; test D-3a) residual-protective; potato plants (Bintje); evaluated after 4 days; read-out: inhibit fungal infestations
Protocol: as §1, §3
2-3 week old potato plants (Bintje variety) are sprayed with a spray mixture (0.02% active ingredient) prepared from a wettable powder formulation of the test compound. After 48 hours, the treated plants are infected with a sporangia suspension of the fungus. Fungus infestation is evaluated after incubation of the infected plants for 4 days at 90-100% relative humidity and +20° C.

Plasmopara viticola [6] = assay: D-1b) residual-curative action against Plasmopara viticola on vines; conditions: Plasmopara viticola, 144 h; 200 ppm; test D-1b) residual-curative; vine seedlings; evaluated 6 days after infection; read-out: inhibit fungal infestations
Protocol: as §2
b) Residual-curative Action
Vine seedlings are infected at the 4- to 5-leaf stage with a sporangia suspension of the fungus. After incubation for 24 hours in a humidity chamber at 95-100% relative humidity and +20° C., the infected plants are dried and sprayed with a spray mixture (0.02% active ingredient) prepared from a wettable powder formulation of the test compound. After the spray coating has dried, the treated plants are placed in the humidity chamber again.
Fungus infestation is evaluated 6 days after infection.

Measured: inhibition at 200 ppm

C#CCOc1ccc(CCNC(=O)C(OCC#C)c2ccc(F)cc2)cc1OC (stereo not drawn) [Compound E1.033, 2-(4-fluoro-phenyl)-N-[2-(3-methoxy-4-prop-2-ynyloxy-phenyl)-ethyl]-2-prop-2-ynyloxy-acetamide]
80 to 100%: all assays above

C#CCOc1ccc(CCNC(=O)C(OCC=C)c2ccc(Br)cc2)cc1OC (stereo not drawn) [Compound E1.021, 2-allyloxy-2-(4-bromo-phenyl)-N-[2-(3-methoxy-4-prop-2-ynyloxy-phenyl)-ethyl]-acetamide]
80 to 100%: all assays above

C#CCOc1ccc(CCNC(=O)C(OCC#C)c2ccc(CC)cc2)cc1OC (stereo not drawn) [Compound E1.053, 2-(4-ethyl-phenyl)-N-[2-(3-methoxy-4-prop-2-ynyloxy-phenyl)-ethyl]-2-prop-2-ynyloxy-acetamide]
80 to 100%: all assays above

C#CCOC(C(=O)NCCc1ccc(OCC#CCC)c(OC)c1)c1ccc(Cl)cc1 (stereo not drawn) [Compound E1.012, 2-(4-chloro-phenyl)-N-[2-(3-methoxy-4-pent-2-ynyloxy-phenyl)-ethyl]-2-prop-2-ynyloxy-acetamide]
80 to 100%: all assays above

C#CCOc1ccc(CCNC(=O)C(OCC#C)c2ccc(F)c(Cl)c2)cc1OC (stereo not drawn) [Compound E1.090, 2-(3-chloro-4-fluoro-phenyl)-N-[2-(3-methoxy-4-prop-2-ynyloxy-phenyl)-ethyl]-2-prop-2-ynyloxy-acetamide]
80 to 100%: all assays above

C#CCOc1ccc(CCNC(=O)C(OCC#CC)c2ccc(Br)cc2)cc1OC (stereo not drawn) [Compound E1.025, 2-(4-bromo-phenyl)-2-but-2-ynyloxy-N-[2-(3-methoxy-4-prop-2-ynyloxy-phenyl)-ethyl]-acetamide]
80 to 100%: all assays above

C#CCOc1ccc(CCNC(=O)C(OC)c2ccc(Cl)cc2)cc1OC (stereo not drawn) [Compound E1.003, 2-(4-Chloro-phenyl)-2-methoxy-N-[2-(3-methoxy-4-prop-2-ynyloxy-phenyl)-ethyl]-acetamide]
80 to 100%: all assays above

C#CCOc1ccc(CCNC(=O)C(OCC#C)c2ccc(F)c(F)c2)cc1OC (stereo not drawn) [Compound E1.085, 2-(3,4-difluoro-phenyl)-N-[2-(3-methoxy-4-prop-2-ynyloxy-phenyl)-ethyl]-2-prop-2-ynyloxy-acetamide]
80 to 100%: all assays above

C#CCOc1ccc(CCNC(=O)C(OC)c2ccc(Br)cc2)cc1OC (stereo not drawn) [Compound E1.019, 2-(4-bromo-phenyl)-2-methoxy-N-[2-(3-methoxy-4-prop-2-ynyloxy-phenyl)-ethyl]-acetamide]
80 to 100%: all assays above

Source: patent publication US6683211B1, “Phenyl-propargylether derivatives” (priority 2000, dated 2004)
